From patent US10815210B2, “Benzocyclobutane derivatives useful as dual SGLT1 / SGLT2 modulators” (Janssen Pharmaceutica NV, priority 2016, dated 2020)

How the values were obtained:
[1] = molecular target: T1, human SGLT2 (Homo sapiens, UniProt P31639); assay: SGLT2 assay: Na-dependent 14C-AMG uptake in CHO-K1 cells stably expressing human SGLT2; assay type: cell-based; conditions: for IC50: 500 μM AMG, 2 hours at 37° C.
T1 construct: expressed in transfected cells; host or cells: CHO-K1
T1 sequence (P31639 1-672): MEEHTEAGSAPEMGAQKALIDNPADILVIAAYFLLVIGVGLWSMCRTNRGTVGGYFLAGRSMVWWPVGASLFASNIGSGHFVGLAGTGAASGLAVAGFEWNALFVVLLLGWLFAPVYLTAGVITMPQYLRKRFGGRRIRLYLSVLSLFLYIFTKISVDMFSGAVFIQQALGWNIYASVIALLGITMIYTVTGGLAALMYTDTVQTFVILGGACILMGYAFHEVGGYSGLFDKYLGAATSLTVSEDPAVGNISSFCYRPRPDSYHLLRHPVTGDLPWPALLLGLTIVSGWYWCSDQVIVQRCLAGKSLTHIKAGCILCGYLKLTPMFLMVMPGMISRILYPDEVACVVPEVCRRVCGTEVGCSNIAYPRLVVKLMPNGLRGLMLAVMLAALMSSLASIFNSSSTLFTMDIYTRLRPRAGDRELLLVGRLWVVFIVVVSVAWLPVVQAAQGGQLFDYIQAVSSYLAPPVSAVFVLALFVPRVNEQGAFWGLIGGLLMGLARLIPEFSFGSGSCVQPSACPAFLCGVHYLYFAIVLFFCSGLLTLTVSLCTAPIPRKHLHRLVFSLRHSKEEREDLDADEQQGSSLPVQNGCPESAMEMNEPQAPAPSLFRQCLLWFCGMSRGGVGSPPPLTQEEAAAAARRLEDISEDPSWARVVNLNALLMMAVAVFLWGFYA
Protocol: (§1) SGLT1 and SGLT2 were cloned in form of cDNA from human small intestine (Genbank M24847), and from human kidney (Genbank M95549), respectively. Subsequently, each full cDNA was subcloned into pcDNA with each construct's integrity verified through follow-on sequencing. To generate CHO-K1 cells that stably express human SGLT1 or human SGLT2, CHO-K1 cells were transfected using DMRIE-C reagent (Life Technologies, Gaithersburg, Md.). Transfected cells were then selected in the presence of 500 μg/ml of the Geneticin (G418 Cellgro Catalog No. 30234-CI)
(§2) Individual clones were then characterized using the following cell-based assay for sodium-dependent glucose transport:
(§3) Inhibition of SGLT1 and SGLT2 activity was assessed in CHO K1 cells stably expressing either human SGLT1 or SGLT2, using the SGLT specific glucose analog methyl-glucopyranoside (Sigma Catalog No. M-9376). Cells were plated (45,000 cells/well) in white wall 96-well plates (COSTAR, Cat#3903) for 24 hours in growth medium, then a final concentration of 10 mM Na-Butyrate (ALDRICH Cat#30341-0) was added. The cells were incubated for 24 hours. On the day of the assay, cells were rinsed and treated with test compounds (at concentrations of 0.001 μM to 10 μM) in assay buffer (50 mM HEPES, 20 mM Tris base, 5 mM KCl, 1 mM MgCl2, 1 mM CaCl2 and 137 mM NaCl, pH 7.4) for 10 minutes. Cells were then incubated with ^14C-a-methyl-d-glucopyranoside (AMG, Amersham Catalog No. CFB 76), using 0.07 μCi per well in 500 μM AMG final concentration. The cells were incubated for 2 hours at 37° C. with 5% CO2 and washed two times with ice-cold Phosphate Buffer Solution (Cellgro Catalog No. 21030-CV). The cells were then solubilized by adding 60 μl of MICROSCINT™20 and the Na-dependent ^14C-AMG uptake was quantified by measuring radioactivity. Plates were counted in a TopCount (Packard, Meriden, Conn.)

[2] = molecular target: T2, human SGLT1 (Homo sapiens, UniProt P13866); assay: SGLT1 assay: Na-dependent 14C-AMG uptake in CHO-K1 cells stably expressing human SGLT1; assay type: cell-based; conditions: for IC50: 500 μM AMG, 2 hours at 37° C.
T2 construct: expressed in transfected cells; host or cells: CHO-K1
T2 sequence (P13866 1-664): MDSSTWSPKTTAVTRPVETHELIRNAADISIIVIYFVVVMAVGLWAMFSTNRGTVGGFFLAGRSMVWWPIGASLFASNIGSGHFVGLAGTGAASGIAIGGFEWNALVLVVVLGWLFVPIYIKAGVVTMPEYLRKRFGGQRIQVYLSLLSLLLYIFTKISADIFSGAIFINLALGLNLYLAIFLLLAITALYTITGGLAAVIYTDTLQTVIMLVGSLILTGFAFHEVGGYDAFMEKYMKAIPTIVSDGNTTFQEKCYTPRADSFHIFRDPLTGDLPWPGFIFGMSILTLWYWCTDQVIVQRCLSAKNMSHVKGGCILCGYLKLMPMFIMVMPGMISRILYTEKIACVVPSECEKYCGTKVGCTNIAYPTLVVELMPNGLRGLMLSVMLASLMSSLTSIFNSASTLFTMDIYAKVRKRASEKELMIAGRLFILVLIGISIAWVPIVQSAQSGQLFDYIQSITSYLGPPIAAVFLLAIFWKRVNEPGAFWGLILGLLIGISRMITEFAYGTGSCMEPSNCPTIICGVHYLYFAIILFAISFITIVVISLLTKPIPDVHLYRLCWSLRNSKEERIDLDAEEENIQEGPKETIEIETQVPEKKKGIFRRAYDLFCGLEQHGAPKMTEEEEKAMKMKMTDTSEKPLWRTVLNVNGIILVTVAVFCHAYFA
Protocol: as §1, §2, §3

Row | IC50 [1] [nM] | IC50 [2] [nM] | inhibition at 0.03 µM [1] [%] | inhibition at 0.3 µM [2] [%] | SMILES
1 | 1 | 29 | – | – | Cc1cc(Cc2ccc3c(c2)CC3)cc([C@@H]2O[C@H](CO)[C@@H](O)[C@H](O)[C@H]2O)c1O [Compound 27, (2S,3R,4R,5S,6R)-2-(5-((1,2-dihydrocyclobutabenzen-4-yl)methyl)-2-hydroxy-3-methylphenyl)-6-(hydroxymethyl)-tetrahydro-2H-pyran-3,4,5-triol]
2 | – | – | 40 | 50 | Cc1c(Cc2ccc3c(c2)CC3)ccc(O)c1[C@@H]1O[C@H](CO)[C@@H](O)[C@H](O)[C@H]1O [Compound 28, (2S,3R,4R,5S,6R)-2-(3-((1,2-dihydrocyclobutabenzen-4-yl)methyl)-6-hydroxy-2-methylphenyl)-6-(hydroxymethyl)-tetrahydro-2H-pyran-3,4,5-triol]
3 | 3 | 92 | – | – | Cc1cc(F)c([C@@H]2O[C@H](CO)[C@@H](O)[C@H](O)[C@H]2O)cc1Cc1ccc2c(c1)CC2 [Compound 29, (2S,3R,4R,5S,6R)-2-(5-[bicyclo[4.2.0]octa-1,3,5-trien-3-ylmethyl]-2-fluoro-4-methylphenyl)-6-(hydroxymethyl)oxane-3,4,5-triol]
4 | 3 | 206 | – | – | OC[C@H]1O[C@@H](c2cc(Cc3ccc4c(c3)CC4)c(Cl)cc2F)[C@H](O)[C@@H](O)[C@@H]1O [Compound 30, (2S,3R,4R,5S,6R)-2-(4-chloro-5-((1,2-dihydrocyclobutabenzen-4-yl)methyl)-2-fluorophenyl)-6-(hydroxymethyl)-tetrahydro-2H-pyran-3,4,5-triol]
5 | 10 | 84 | – | – | COc1cc(F)c([C@@H]2O[C@H](CO)[C@@H](O)[C@H](O)[C@H]2O)cc1Cc1ccc2c(c1)CC2 [Compound 31, (2S,3R,4R,5S,6R)-2-(5-((1,2-dihydrocyclobutabenzen-4-yl)methyl)-2-fluoro-4-methoxyphenyl)-6-(hydroxymethyl)-tetrahydro-2H-pyran-3,4,5-triol]
6 | 3 | 10 | – | – | CCc1cc(F)c([C@@H]2O[C@H](CO)[C@@H](O)[C@H](O)[C@H]2O)cc1Cc1ccc2c(c1)CC2 [Compound 32, (2S,3R,4R,5S,6R)-2-(5-((1,2-dihydrocyclobutabenzen-4-yl)methyl)-4-ethyl-2-fluorophenyl)-6-(hydroxymethyl)-tetrahydro-2H-pyran-3,4,5-triol]
7 | – | – | 57 | 23 | Cc1cc(OC(F)(F)F)c([C@@H]2O[C@H](CO)[C@@H](O)[C@H](O)[C@H]2O)cc1Cc1ccc2c(c1)CC2 [Compound 33, (2S,3R,4R,5S,6R)-2-(5-((1,2-dihydrocyclobutabenzen-4-yl)methyl)-4-methyl-2-(trifluoromethoxy)phenyl)-6-(hydroxymethyl)-tetrahydro-2H-pyran-3,4,5-triol]
8 | – | – | 72 | 24 | COc1cc(OC(F)(F)F)c([C@@H]2O[C@H](CO)[C@@H](O)[C@H](O)[C@H]2O)cc1Cc1ccc2c(c1)CC2 [Compound 34, (2S,3R,4R,5S,6R)-2-(5-((1,2-dihydrocyclobutabenzen-4-yl)methyl)-4-methoxy-2-(trifluoromethoxy)phenyl)-6-(hydroxymethyl)-tetrahydro-2H-pyran-3,4,5-triol]
9 | – | – | 45 | 29 | CCc1cc(OC(F)(F)F)c([C@@H]2O[C@H](CO)[C@@H](O)[C@H](O)[C@H]2O)cc1Cc1ccc2c(c1)CC2 [Compound 35, (2S,3R,4R,5S,6R)-2-(5-((1,2-dihydrocyclobutabenzen-4-yl)methyl)-4-ethyl-2-(trifluoromethoxy)phenyl)-6-(hydroxymethyl)-tetrahydro-2H-pyran-3,4,5-triol]
10 | – | – | 84 | 26 | Cc1cc(OC(F)F)c([C@@H]2O[C@H](CO)[C@@H](O)[C@H](O)[C@H]2O)cc1Cc1ccc2c(c1)CC2 [Compound 36, 2S,3R,4R,5S,6R)-2-(5-([bicyclo[4.2.0]octa-1(6),2,4-trien-3-ylmethyl]-2-(difluoromethoxy)-4-methylphenyl)-6-(hydroxymethyl)oxane-3,4,5-triol]
11 | – | – | 84 | 20 | OC[C@H]1O[C@@H](c2cc(Cc3ccc4c(c3)CC4)c(Cl)cc2OC(F)F)[C@H](O)[C@@H](O)[C@@H]1O [Compound 37, (2S,3R,4R,5S,6R)-2-(4-chloro-2-(difluoromethoxy)-5-((1,2-dihydrocyclobutabenzen-4-yl)methyl)phenyl)-6-(hydroxymethyl)-tetrahydro-2H-pyran-3,4,5-triol]
12 | – | – | 78 | 20 | COc1cc(OC(F)F)c([C@@H]2O[C@H](CO)[C@@H](O)[C@H](O)[C@H]2O)cc1Cc1ccc2c(c1)CC2 [Compound 38, (2S,3R,4R,5S,6R)-2-(2-(difluoromethoxy)-5-((1,2-dihydrocyclobutabenzen-4-yl)methyl)-4-methoxyphenyl)-6-(hydroxymethyl)-tetrahydro-2H-pyran-3,4,5-triol]
13 | 13 | 27 | – | – | Cc1cc(OCF)c([C@@H]2O[C@H](CO)[C@@H](O)[C@H](O)[C@H]2O)cc1Cc1ccc2c(c1)CC2 [Compound 39, (2S,3R,4R,5S,6R)-2-(5-[bicyclo[4.2.0]octa-1(6),2,4-trien-3-ylmethyl]-2-(fluoromethoxy)-4-methylphenyl)-6-(hydroxymethyl)oxane-3,4,8-triol]
14 | 1 | 149 | – | – | OC[C@H]1O[C@@H](c2cc(Cc3ccc4c(c3)CC4)c(Cl)cc2OCF)[C@H](O)[C@@H](O)[C@@H]1O [Compound 40, (2S,3R,4R,5S,6R)-2-(4-chloro-5-((1,2-dihydrocyclobutabenzen-4-yl)methyl)-2-(fluoromethoxy)phenyl)-6-(hydroxymethyl)-tetrahydro-2H-pyran-3,4,5-triol]
15 | 18 | 106 | – | – | COc1cc(OCF)c([C@@H]2O[C@H](CO)[C@@H](O)[C@H](O)[C@H]2O)cc1Cc1ccc2c(c1)CC2 [Compound 41, (2S,3R,4R,5S,6R)-2-(5-((1,2-dihydrocyclobutabenzen-4-yl)methyl)-2-(fluoromethoxy)-4-methoxyphenyl)-6-(hydroxymethyl)-tetrahydro-2H-pyran-3,4,5-triol]
16 | 2 | 34 | – | – | CCc1cc(OCF)c([C@@H]2O[C@H](CO)[C@@H](O)[C@H](O)[C@H]2O)cc1Cc1ccc2c(c1)CC2 [Compound 42, (2S,3R,4R,5S,6R)-2-(5-((1,2-dihydrocyclobutabenzen-4-yl)methyl)-4-ethyl-2-(fluoromethoxy)phenyl)-6-(hydroxymethyl)-tetrahydro-2H-pyran-3,4,5-triol]
17 | 1 | 35 | – | – | [2H]C([2H])(c1ccc2c(c1)CC2)c1cc([C@@H]2O[C@H](CO)[C@@H](O)[C@H](O)[C@H]2O)ccc1C [Compound 51]
